Experimental data reported in ChEMBL document CHEMBL1201862, “PubChem BioAssay data set” (2004).
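Results reflect a 48-hour exposure of cells in 96-well plates to compound at five concentrations. GI50 is the concentration that inhibits growth by half.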 Active and inactive are the calls of the source. No stated cut-off is given here; in the data, active = GI50 up to about 1.1 µM and inactive = higher.

Columns and labels:
Test in all cases: NCI tumour cell line growth inhibition, 48 h
ACHN = test system: ACHN
COLO 205 = test system: COLO 205
IGROV-1 = test system: IGROV-1
HOP-92 = test system: HOP-92
SNB-78 = test system: SNB-78
HT-29 = test system: HT-29
DLD-1 = test system: DLD-1
RXF 393 = test system: RXF 393
RXF 631 = test system: RXF 631
SK-MEL-28 = test system: SK-MEL-28
OVCAR-4 = test system: OVCAR-4
HOP-18 = test system: HOP-18
HCT-116 = test system: HCT-116
MOLT-4 = test system: MOLT-4
SK-MEL-5 = test system: SK-MEL-5
LOX IMVI = test system: LOX IMVI
DMS-273 = test system: DMS-273
NCI-H23 = test system: NCI-H23
A498 = test system: A498
OVCAR-8 = test system: OVCAR-8
LXFL 529 = test system: LXFL 529
EKVX = test system: EKVX
SK-MEL-2 = test system: SK-MEL-2
KM12 = test system: KM12
NCI-H460 = test system: NCI-H460
RPMI-8226 = test system: RPMI-8226
HCT-15 = test system: HCT-15
KM-20L2 = test system: KM-20L2
SNB-19 = test system: SNB-19
K562 = test system: K562
SR = test system: SR
SF-539 = test system: SF-539
SK-OV-3 = test system: SK-OV-3
DMS-114 = test system: DMS-114
OVCAR-3 = test system: OVCAR-3
Malme-3M = test system: Malme-3M
NCI-H226 = test system: NCI-H226
SNB-75 = test system: SNB-75
SF-268 = test system: SF-268
UACC-62 = test system: UACC-62
OVCAR-5 = test system: OVCAR-5
HCC 2998 = test system: HCC 2998
A549 = test system: A549
SN12C = test system: SN12C
UO-31 = test system: UO-31
HOP-62 = test system: HOP-62
786-0 = test system: 786-0
NCI-H522 = test system: NCI-H522
SW-620 = test system: SW-620
CAKI-1 = test system: CAKI-1
TK-10 = test system: TK-10
M14 = test system: M14
M19-MEL = test system: M19-MEL
UACC-257 = test system: UACC-257
CCRF-CEM = test system: CCRF-CEM
SF-295 = test system: SF-295
U-251 = test system: U-251
XF498 = test system: XF498
HL-60 = test system: HL-60

COC(=O)C1CCCC2(C1)OCCO2 (stereo not given)
GI50 (ACHN): > 100 µM (inactive) | GI50 (COLO 205): > 100 µM (inactive) | GI50 (IGROV-1): > 100 µM (inactive) | GI50 (HOP-92): > 100 µM (inactive) | GI50 (SNB-78): > 100 µM (inactive) | GI50 (HT-29): > 100 µM (inactive) | GI50 (DLD-1): > 100 µM (inactive) | GI50 (RXF 393): > 100 µM (inactive) | GI50 (RXF 631): > 100 µM (inactive) | GI50 (SK-MEL-28): > 100 µM (inactive) | GI50 (OVCAR-4): > 100 µM (inactive) | GI50 (HOP-18): > 100 µM (inactive) | GI50 (HCT-116): > 100 µM (inactive) | GI50 (MOLT-4): > 100 µM (inactive) | GI50 (SK-MEL-5): > 100 µM (inactive) | GI50 (LOX IMVI): > 100 µM (inactive) | GI50 (DMS-273): > 100 µM (inactive) | GI50 (NCI-H23): > 100 µM (inactive) | GI50 (A498): > 100 µM (inactive) | GI50 (OVCAR-8): > 100 µM (inactive) | GI50 (LXFL 529): > 100 µM (inactive) | GI50 (EKVX): > 100 µM (inactive) | GI50 (SK-MEL-2): > 100 µM (inactive) | GI50 (KM12): > 100 µM (inactive) | GI50 (NCI-H460): > 100 µM (inactive) | GI50 (RPMI-8226): > 100 µM (inactive) | GI50 (HCT-15): > 100 µM | GI50 (KM-20L2): > 100 µM (inactive) | GI50 (SNB-19): > 100 µM (inactive) | GI50 (K562): > 100 µM (inactive) | GI50 (SR): > 100 µM (inactive) | GI50 (SF-539): > 100 µM (inactive) | GI50 (SK-OV-3): > 100 µM (inactive) | GI50 (DMS-114): > 100 µM (inactive) | GI50 (OVCAR-3): > 100 µM (inactive) | GI50 (Malme-3M): > 100 µM (inactive) | GI50 (NCI-H226): > 100 µM (inactive) | GI50 (SNB-75): > 100 µM (inactive) | GI50 (SF-268): > 100 µM (inactive) | GI50 (UACC-62): > 100 µM (inactive) | GI50 (OVCAR-5): > 100 µM (inactive) | GI50 (HCC 2998): > 100 µM (inactive) | GI50 (A549): > 100 µM (inactive) | GI50 (SN12C): > 100 µM (inactive) | GI50 (UO-31): > 100 µM (inactive) | GI50 (HOP-62): > 100 µM (inactive) | GI50 (786-0): > 100 µM (inactive) | GI50 (NCI-H522): > 100 µM (inactive) | GI50 (SW-620): > 100 µM (inactive) | GI50 (CAKI-1): > 100 µM (inactive) | GI50 (TK-10): > 100 µM (inactive) | GI50 (M14): > 100 µM (inactive) | GI50 (M19-MEL): > 100 µM (inactive) | GI50 (UACC-257): > 100 µM (inactive) | GI50 (CCRF-CEM): > 100 µM (inactive) | GI50 (SF-295): > 100 µM (inactive) | GI50 (U-251): > 100 µM (inactive)

O=C(CC1C(=O)Nc2ccccc2S1(=O)=O)Nc1ccc(Cl)cc1 (stereo not given)
GI50 (ACHN): 20.4 µM (inactive) | GI50 (IGROV-1): 17.2 µM (inactive) | GI50 (HOP-92): 16.9 µM (inactive) | GI50 (SNB-78): 21.7 µM (inactive) | GI50 (HT-29): 29.9 µM (inactive) | GI50 (DLD-1): 33.5 µM (inactive) | GI50 (RXF 393): 15.9 µM (inactive) | GI50 (RXF 631): 27.6 µM (inactive) | GI50 (SK-MEL-28): 20 µM (inactive) | GI50 (OVCAR-4): 22.1 µM (inactive) | GI50 (HCT-116): 27.7 µM (inactive) | GI50 (MOLT-4): 13.5 µM (inactive) | GI50 (SK-MEL-5): 21.2 µM (inactive) | GI50 (LOX IMVI): 16.9 µM (inactive) | GI50 (DMS-273): 13.1 µM (inactive) | GI50 (NCI-H23): 38.9 µM (inactive) | GI50 (A498): 25.8 µM (inactive) | GI50 (OVCAR-8): 26.4 µM (inactive) | GI50 (LXFL 529): 22.9 µM (inactive) | GI50 (SK-MEL-2): 21.1 µM (inactive) | GI50 (NCI-H460): 30.3 µM (inactive) | GI50 (RPMI-8226): 4.84 µM (inactive) | GI50 (HCT-15): 31.6 µM | GI50 (KM-20L2): > 100 µM (inactive) | GI50 (SNB-19): 18.8 µM (inactive) | GI50 (K562): 18.2 µM (inactive) | GI50 (SR): 4.7 µM (inactive) | GI50 (SF-539): 13.8 µM (inactive) | GI50 (DMS-114): 13.4 µM (inactive) | GI50 (OVCAR-3): 15.2 µM (inactive) | GI50 (Malme-3M): 22.7 µM (inactive) | GI50 (NCI-H226): 32.2 µM (inactive) | GI50 (SNB-75): 16.9 µM (inactive) | GI50 (SF-268): 14.4 µM (inactive) | GI50 (UACC-62): 43 µM (inactive) | GI50 (OVCAR-5): 78.9 µM (inactive) | GI50 (HCC 2998): 18.4 µM (inactive) | GI50 (XF498): 11.7 µM (inactive) | GI50 (A549): 31.6 µM (inactive) | GI50 (SN12C): 34 µM (inactive) | GI50 (UO-31): 17.1 µM (inactive) | GI50 (786-0): 14.5 µM (inactive) | GI50 (NCI-H522): 16.3 µM (inactive) | GI50 (SW-620): 31.3 µM (inactive) | GI50 (CAKI-1): 16.5 µM (inactive) | GI50 (TK-10): 20 µM (inactive) | GI50 (M14): 31 µM (inactive) | GI50 (M19-MEL): 24 µM (inactive) | GI50 (UACC-257): 14.9 µM (inactive) | GI50 (CCRF-CEM): 20.3 µM (inactive) | GI50 (SF-295): 45.6 µM (inactive) | GI50 (U-251): 16 µM (inactive) | GI50 (HL-60): 12.1 µM (inactive)
